Assay: xn = mol fraction of the nth substance listed
Conditions: 101.33 kPa, Liquid; for speed of sound: Sing-around technique in a fixed-path interferometer

CCCC(C)O (stereo unspecified) [pentan-2-ol] + CCCCCCCCCC
Conditions	mass density, 293.15 K [kg/m3]	mass density, 298.15 K [kg/m3]	mass density, 303.15 K [kg/m3]	speed of sound, 293.15 K [m/s]	speed of sound, 298.15 K [m/s]	speed of sound, 303.15 K [m/s]	viscosity, 293.15 K [mPa·s]	viscosity, 298.15 K [mPa·s]	viscosity, 303.15 K [mPa·s]
x1 = 0.0487	731.62	727.76	723.89	1251	1231	1211	0.914	0.845	0.779
x1 = 0.0987	733.41	729.53	725.62	1248	1228	1209	0.912	0.844	0.782
x1 = 0.2043	738.14	734.23	730.28	1243	1223	1204	0.956	0.882	0.81
x1 = 0.2996	742.88	738.94	734.96	1239	1220	1200	0.989	0.909	0.842
x1 = 0.4006	748.67	744.7	740.69	1236	1216	1197	1.084	0.99	0.883
x1 = 0.5017	755.31	751.3	747.25	1233	1214	1194	1.149	1.044	0.952
x1 = 0.6002	762.88	758.83	754.73	1232	1213	1193	1.3	1.166	1.053
x1 = 0.6985	771.67	767.58	763.44	1233	1214	1194	1.531	1.352	1.201
x1 = 0.7992	782.4	778.29	774.12	1237	1217	1198	1.914	1.646	1.439
x1 = 0.8996	794.55	790.46	786.3	1242	1223	1204	2.626	2.214	1.888
x1 = 0.95	801.5	797.43	793.28	1246	1228	1209	3.205	2.651	2.244
x1 = 1	809.04	805.01	800.9	1250	1232	1214	4.001	3.273	2.708

CCCC(C)O (stereo unspecified) [pentan-2-ol] + CCCCCCCCCCCC
Conditions	mass density, 293.15 K [kg/m3]	mass density, 298.15 K [kg/m3]	mass density, 303.15 K [kg/m3]	speed of sound, 293.15 K [m/s]	speed of sound, 298.15 K [m/s]	speed of sound, 303.15 K [m/s]	viscosity, 293.15 K [mPa·s]	viscosity, 298.15 K [mPa·s]	viscosity, 303.15 K [mPa·s]
x1 = 0.049	749.65	745.96	742.26	1294	1275	1256	1.443	1.316	1.206
x1 = 0.0965	750.77	747.03	743.3	1291	1271	1252	1.441	1.312	1.201
x1 = 0.2065	753.81	750.05	746.25	1284	1265	1245	1.438	1.307	1.194
x1 = 0.2993	756.86	753.06	749.23	1278	1259	1240	1.465	1.33	1.211
x1 = 0.3986	760.67	756.84	752.97	1271	1252	1233	1.499	1.355	1.231
x1 = 0.5046	765.6	761.71	757.79	1265	1246	1227	1.563	1.406	1.27
x1 = 0.5974	770.7	766.77	762.79	1260	1241	1222	1.667	1.487	1.338
x1 = 0.7026	777.76	773.76	769.72	1255	1236	1217	1.865	1.635	1.447
x1 = 0.8001	785.82	781.77	777.66	1253	1233	1214	2.205	1.9	1.652
x1 = 0.8994	795.9	791.84	787.71	1251	1232	1213	2.786	2.347	1.998
x1 = 0.9497	802.07	798.02	793.89	1251	1232	1213	3.267	2.717	2.284
x1 = 1	809.04	805	800.9	1250	1232	1214	4.001	3.273	2.708

Reference: the NIST ThermoML archive (doi:10.1021/je034208m)
